From patent US12679878B2, “CRF2 receptor agonists and their use in therapy” (SANOFI, priority 2020, dated 2026) come the findings set out here.

Broadly, the bioavailability is the share of a dose that reaches the circulation, judged against a reference dose that is usually intravenous. High values mean much systemic uptake, low ones little systemic uptake. A word on the Cmax: it is the highest concentration seen after dosing. As usually defined, the half-life is the time in which the quantity being followed falls by half. Lower therefore signals fast loss. As a reminder, the AUC(0-t) is the area under the concentration-time curve up to a stated or last time point. A lower AUC(0-t) goes with less exposure. Usually EC50 stands for the concentration at which the effect is half-maximal. A low value points to a more potent agent.

Data set [1] is described as follows: Pharmacokinetic properties in rats, i.v. or s.c. (Example 16). It counts as in vivo, SD rat. The following applies: Rat. On the procedure: (§1) The pharmacokinetic properties of exemplary peptides SEQ ID NO: 35 and SEQ ID NO: 24 were assessed in mice and rats.
(§2) The test compound was administered in a suitable buffer system (PBS buffer solution at pH 7.4, or DPBS solution) at concentrations of 0.05, 0.1, 0.5 or 1 mg/ml depending on the dose, species and administration volume. Female C57BI/6 mice and male SD rate were dosed 0.1 mg/kg or 0.3 mg/kg intravenously or subcutaneously. The animals were sacrificed, and blood samples were collected after 0.08, 0.25, 0.5, 1, 2, 4, 8, 24, 32, and 48 hours post-intravenous administration and 0.25, 0.5, 1, 2, 4, 8, 24, 32, and 48 hours post-subcutaneous administration, respectively. Plasma samples were analysed after protein precipitation via liquid chromatography mass spectrometry (LC/MS). Pharmacokinetic parameters and half-life were calculated using Phoenix-WinNonlin 8.1 using a non-compartmental model and linear trapezoidal interpolation calculation.

Data set [2] is described as follows: Pharmacokinetic properties in mice, i.v. or s.c. (Example 16). It counts as in vivo, C57BI/6 mice. Particulars: female, C57BL/6, plasma, Mouse. The method, then:
as §1, §2

The target of a further data set is T1, endogenous human CRF2 (Homo sapiens, UniProt Q13324).
T1 construct: endogenous in cells; host or cells: NCI-H82
T1 sequence (Q13324 1-411): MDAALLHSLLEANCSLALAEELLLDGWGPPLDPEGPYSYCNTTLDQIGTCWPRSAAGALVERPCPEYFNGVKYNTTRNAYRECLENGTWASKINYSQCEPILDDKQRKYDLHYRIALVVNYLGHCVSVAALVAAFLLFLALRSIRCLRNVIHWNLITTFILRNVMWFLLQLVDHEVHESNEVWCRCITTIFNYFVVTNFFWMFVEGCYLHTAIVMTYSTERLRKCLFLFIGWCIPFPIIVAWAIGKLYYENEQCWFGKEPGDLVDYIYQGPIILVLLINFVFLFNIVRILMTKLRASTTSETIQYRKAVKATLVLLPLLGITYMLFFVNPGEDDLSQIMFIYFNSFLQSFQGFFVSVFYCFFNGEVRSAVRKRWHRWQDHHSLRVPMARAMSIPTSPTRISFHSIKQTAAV
The data set is described as follows: cAMP agonist effect in NCI-H82 cells expressing endogenous human CRF2 (Example 10). Particulars: cAMP HTRF, 5 min activation. It counts as cell-based. The method, then:
The agonist effect of the compounds was assessed in NCI-H82 cells expressing endogenous human CRF2.
NCI-H82 cells in suspension were plated in low-volume 384-well plates at a density of 30000 cells/well in 5 μl of test medium (RPMI+1 mM IBMX). The plates were briefly centrifuged at 800 rpm to allow the cell suspension to move to the bottom of the wells and then incubated for 2 hours at 37° C. in 5% CO2. 5 μl of test compounds at appropriate concentrations (10-11 to 3×10-7) diluted in test medium were then transferred in 384 wells plates. After 5 min of activation, the reaction was stopped by addition of HTRF revelation reagents with a multidrop dispenser. The two reagents were 5 μl/well of Anti-CAMP-cryptate diluted 20-fold in conjugate and lysis buffer and 5 μl/well of cAMP-D2 diluted 20-fold in conjugate and lysis buffer. After one-hour incubation at room temperature in the dark, the plates were read on a Clariostar apparatus.
A general note: Time-resolved FRET reads energy transfer from a long-lived donor to a nearby acceptor.

Setting [3] is: male, Sprague-Dawley (SD), plasma, iv, 0.1 mg/kg i.v.
The mark [4] stands for this setting: male, Sprague-Dawley (SD), plasma, sc, 0.1 mg/kg s.c.

Starred links: 1 amine or outer side, 2 acyl side, 3 side chain; linkers in the order of their positions; H or OH if unused. Non-standard residues stand in square brackets, D forms with d. Residues, ends and D or L forms follow the SMILES beside them. Groups on a side chain read outwards from the residue. *: point of attachment. C18 diacid = O=C(O)CCCCCCCCCCCCCCCCC(=O)*; γGlu = O=C(O)[C@H](CCC(=O)[*:2])N[*:1]; AEEA = NCCOCCOCC(=O)O; Aib = CC(C)(N)C(=O)O

As for `CC[C@H](C)[C@H](N)C(=O)N[C@H](C(=O)N[C@@H](CC(C)C)C(=O)N[C@@H](CO)C(=O)N[C@@H](CC(C)C)C(=O)N[C@@H](CC(=O)O)C(=O)N[C@H](C(=O)N1CCC[C@H]1C(=O)N[C@H](C(=O)N[C@@H](CCCCN)C(=O)N[C@@H](CC(C)C)C(=O)N[C@@H](CCCCNC(=O)COCCOCCNC(=O)COCCOCCNC(=O)CC[C@H](NC(=O)CCCCCCCCCCCCCCCCC(=O)O)C(=O)O)C(=O)N[C@@H](CCCCN)C(=O)N[C@H](C(=O)N[C@@H](CC(C)C)C(=O)N[C@@H](CC(C)C)C(=O)N[C@@H](CCC(=O)O)C(=O)N[C@@H](CCC(N)=O)C(=O)N[C@@H](CCC(=O)O)C(=O)N[C@@H](CCCCN)C(=O)N[C@@H](CCC(N)=O)C(=O)N[C@@H](CCCCN)C(=O)N[C@@H](CCCCN)C(=O)N[C@@H](CCC(N)=O)C(=O)N[C@@H](CCCNC(=N)N)C(=O)N[C@@H](CCC(=O)O)C(=O)N[C@@H](CCC(N)=O)C(=O)N[C@@H](C)C(=O)N[C@@H](CCC(=O)O)C(=O)N[C@H](C(=O)N[C@@H](CC(N)=O)C(=O)N[C@@H](CCCCN)C(=O)N[C@@H](CCC(N)=O)C(=O)N[C@H](C(=O)N[C@@H](CC(C)C)C(=O)N[C@@H](C)C(=O)N[C@@H](CCC(N)=O)C(=O)N[C@H](C(N)=O)C(C)C)[C@@H](C)CC)[C@@H](C)O)[C@@H](C)CC)[C@@H](C)CC)C(C)C)C(C)C` [compound 35] (H-IVLSLDVPIKLK([AEEA-AEEA-γGlu-C18 diacid])KILLEQEKQKKQREQAETNKQILAQV-NH2; N-terminus assumed), the “AUClast” value in data set [1] (0.1 mg/kg i.v.) was determined as 2790 ng·h/mL. The clearance in data set [1] (male, SD, plasma, iv, 0.1 mg/kg i.v., read-out: CI (converted)) was 0.597 mL/min/kg; in data set [2] (iv, 0.3 mg/kg i.v., read-out: CI (converted)) it was 0.21 mL/min/kg. The bioavailability in data set [1] (male, SD, plasma, sc, 0.1 mg/kg s.c.) is 45.8%. In addition, the Cmax in data set [1] (setting [3]) is 1900 ng/mL; in data set [1] (setting [4]) it was 131 ng/mL; in data set [2] (iv, 0.3 mg/kg i.v.) it was 4150 ng/mL; in data set [2] (sc, 0.1 mg/kg s.c.) it was 1410 ng/mL. The half-life is 3 h in data set [1] (setting [3]); 6.1 h in data set [1] (setting [4]); 6.4 h in data set [2] (iv, 0.3 mg/kg i.v.); 5.5 h in data set [2] (sc, 0.1 mg/kg s.c.). Further, the AUC(0-t) in data set [1] (setting [4]) was determined as 1200 ng·h/mL; in data set [2] (iv, 0.3 mg/kg i.v.), 23700 ng·h/mL; in data set [2] (sc, 0.1 mg/kg s.c.) it was 18500 ng·h/mL.

On endogenous human CRF2, `CC[C@H](C)[C@H](N)C(=O)N[C@H](C(=O)N[C@@H](CC(C)C)C(=O)N[C@@H](CO)C(=O)N[C@@H](CC(C)C)C(=O)N[C@@H](CC(=O)O)C(=O)N[C@@H](C(=O)N1CCC[C@H]1C(=O)N[C@H](C(=O)N[C@@H](CCCCN)C(=O)N[C@@H](CC(C)C)C(=O)N[C@@H](CCCCNC(=O)COCCOCCNC(=O)COCCOCCNC(=O)CC[C@H](NC(=O)CCCCCCCCCCCCCCCCC(=O)O)C(=O)O)C(=O)N[C@@H](CCC(N)=O)C(=O)N[C@H](C(=O)N[C@@H](CC(C)C)C(=O)N[C@@H](CC(C)C)C(=O)N[C@@H](CCCCN)C(=O)N[C@@H](CCC(N)=O)C(=O)N[C@@H](CCC(=O)O)C(=O)N[C@@H](CCCNC(=N)N)C(=O)N[C@@H](CCC(N)=O)C(=O)N[C@@H](CCCCN)C(=O)NC(C)(C)C(=O)N[C@@H](CCC(N)=O)C(=O)N[C@@H](CCCNC(=N)N)C(=O)N[C@@H](CCC(N)=O)C(=O)N[C@@H](CCC(N)=O)C(=O)N[C@@H](C)C(=O)N[C@@H](CCC(=O)O)C(=O)N[C@@H](CCCCN)C(=O)N[C@@H](CC(N)=O)C(=O)N[C@@H](CCCCN)C(=O)N[C@@H](CCC(N)=O)C(=O)N[C@H](C(=O)N[C@@H](CC(C)C)C(=O)N[C@@H](C)C(=O)N[C@@H](CCC(N)=O)C(=O)N[C@H](C(N)=O)C(C)C)[C@@H](C)CC)[C@@H](C)CC)[C@@H](C)CC)C(C)C)C(C)C` [compound 135] (H-IVLSLD[dV]PIKLK([AEEA-AEEA-γGlu-C18 diacid])QILLKQERQK[Aib]QRQQAEKNKQILAQV-NH2; N-terminus assumed) registered an EC50 of 110 nM.
